Laboratory results as given in US7667022B2, “Promoter for high-throughput screening for inhibitors against Mycobacteria under low carbon conditions” (Council of Scientific & Industrial Research, priority 2003, dated 2010).

Tested on: Mycobacterium smegmatis, mc^2155
Assay: Percent inhibition of growth of liquid culture (optical density vs control without antibiotic) at 2% or 0.02% glucose
Assay type: cell-based
Conditions: for % inhibition of growth at 0.02% Glucose: 0.02% Glucose (starved)

## CC[C@@H](CO)NCCN[C@@H](CC)CO [Ethambutol]
0.15 μgm/ml
  % inhibition of growth at 0.02% Glucose: 37%
  % inhibition of growth at 2% Glucose: 44%
0.31 μgm/ml
  % inhibition of growth at 0.02% Glucose: 66%
  % inhibition of growth at 2% Glucose: 85%
0.63 μgm/ml
  % inhibition of growth at 0.02% Glucose: 68%
  % inhibition of growth at 2% Glucose: 91%
1.25 μgm/ml
  % inhibition of growth at 0.02% Glucose: 72%
  % inhibition of growth at 2% Glucose: 93%

## NNC(=O)c1ccncc1 [Isoniazide]
0.8 μgm/ml
  % inhibition of growth at 0.02% Glucose: 12%
  % inhibition of growth at 2% Glucose: 33%
1.6 μgm/ml
  % inhibition of growth at 0.02% Glucose: 30%
  % inhibition of growth at 2% Glucose: 70%
3.2 μgm/ml
  % inhibition of growth at 0.02% Glucose: 70%
  % inhibition of growth at 2% Glucose: 90%
6.4 μgm/ml
  % inhibition of growth at 0.02% Glucose: 78%
  % inhibition of growth at 2% Glucose: 96%

## CO[C@H]1/C=C/O[C@@]2(C)Oc3c(C)c(O)c4c(O)c(c(/C=N/N5CCN(C)CC5)c(O)c4c3C2=O)NC(=O)/C(C)=C\C=C\[C@H](C)[C@H](O)[C@@H](C)[C@@H](O)[C@@H](C)[C@H](OC(C)=O)[C@@H]1C [Rifampicin]
0.25 μgm/ml
  % inhibition of growth at 0.02% Glucose: 9%
  % inhibition of growth at 2% Glucose: 39%
0.5 μgm/ml
  % inhibition of growth at 0.02% Glucose: 17%
  % inhibition of growth at 2% Glucose: 58%
1.0 μgm/ml
  % inhibition of growth at 0.02% Glucose: 29%
  % inhibition of growth at 2% Glucose: 70%
2.0 μgm/ml
  % inhibition of growth at 0.02% Glucose: 68%
  % inhibition of growth at 2% Glucose: 89%
Stationary or starved state
  reduction of inhibition of growth in the presence of the promoter under a stationary or a starved state: about 20%
